In patent US20190330224A1, “ACC INHIBITORS AND USES THEREOF” (Gilead Apollo, LLC, priority 2015, published 2019):
≈ marks a conversion by molar mass, not a printed value. Read-outs that look alike come from different tables or passages of the source.

What was measured:
[1] = tested on: Blumeria graminis f sp. hordei; assay: Foliar protection test, barley powdery mildew control; type: in vivo, Blumeria graminis f sp. hordei on Hordeum vulgare cv. Perry; conditions: 168 h, read-out: Barley Powdery Mildew Control at 50 ppm
Experimental: Compounds of the present invention were evaluated in a foliar protection test to determine the ability to control barley powdery mildew. Plants (Hordeum vulgare cv. Perry) were grown for 6 days in 2-inch square pots containing Metromix 200 medium amended with fertilizer. For propagation, plants were maintained in a growth chamber at conditions of 20 to 21° C., 16 hour light cycle, 400 uM of light, 70% humidity, and with sub-irrigation as needed. After inoculation with the pathogen of Blumeria graminis f sp. hordei, plants were kept at conditions of 20 to 22° C., 70% relative humidity, and 200 uM of light to facilitate infection and disease development. At 6 days after planting (1st true leaf fully expanded), the test compounds were dissolved in a solution of 5% acetone and 0.005% Tween 80 surfactant. An atomizer was used for applying the solution onto both sides of the leaves until thoroughly wetted. The amount of the compound applied to the leaves was typically 200, 100, 50, 10, or 2 ppm, but it may vary. At 24 hours after treatment, the plants were moved to a cooler chamber and inoculated by shaking well-colonized, untreated stock plants above the treated plants. This allowed producing a settling cloud of spores and resulting in uniform infection. Efficacy was evaluated in 7 days later by examining leaves for colonization and growth of mildew. Table 5 lists the results of barley powdery mildew control at a compound concentration of 50 ppm or 10 ppm. Compounds having an activity designated as “AA” provided a compound having >85% control of barley powdery mildew; compounds having an activity designated as “A” provided a compound having from 70% to 84% control of barley powdery mildew; compounds having an activity designated as “B” provided a compound having from 50 to 69% control of barley powdery mildew; compounds having an activity designated as “C” provided a compound having from 25 to 49% control of barley powdery mildew; and compounds having an activity designated as “D” provided a compound having <25% control of barley powdery mildew.

[2] = tested on: Phytophthora capsici (Pc); assay: Growth inhibition assay of fungal pathogens, Pc; type: cell-based; conditions: read-out: Concentration at 90% Inhibition, Pc
Experimental: (§1) Compounds of the present invention were evaluated in a growth inhibition assay to determine the ability to control the growth of fungal pathogens, such as Botrtyis cinerea (Bc). Collectotrichum graminicola (Cg), Diplodia maydis (Dm), Fusarium moniliforme (Fm), Fusarium virguliforme (Fv), Phytophthora capsici (Pc), Rhizoctonia solani (Rs), and Septoria tritici (St). Compounds to be tested were dissolved in DMSO at 2.5 mg/ml to produce compound stock solutions (“stocks”). Stocks were diluted with DMSO by a five-fold dilution in a 96-well stock plate, and two sets of final concentrations of 50, 10, and 2 ppm or 2, 0.4, and 0.08 ppm were obtained in vitro. A set of positive controls was also prepared, with various concentrations of Soraphen (2, 0.4, and 0.08 ppm), Metalaxyl (1.1, 0.22, and 0.04 ppm), and Metconazole (2, 0.4, and 0.08 ppm or 0.2, 0.04, and 0.008 ppm) after the five-fold dilutions. Negative controls on each plate included 2% DMSO, water, and a blank (media+2% DMSO). Fungal spores were isolated from previously sub-cultured plates of Botrtyis cinerea (Bc), Collectotrichum graminicola (Cg), Diplodia maydis (Dm), Fusarium moniliforme (Fm), Fusarium virguliforme (Fv), Phytophthora capsici (Pc), and Septoria tritici (St). The isolated spores were diluted to individual concentrations with a 17% V8 liquid media. For Rhizoctonia solani (Rs) and Pythium irregulare, 1.5 mm mycelial plugs were used in place of spores and ¼ Potato Dextrose Broth (PDB) was used for dilution. The spore concentrations and plug sizes were based on growth curves generated at 48 hours for each pathogen. In a second 96-well plate, the spores or mycelial plugs, media, diluted compound solutions, and controls were combined. Once the compound was added, a true final concentration of compound in each well was measured by an OD600 reading, which adjusted for any compound precipitation that might have occurred in the well. Plate readings were repeated at both 24 and 48 hours. The blank negative control was used as a background subtraction. Additional visual ratings were performed at both 24 and 48 hours for checking on precipitation and confirming efficacy. Visual and OD600 ratings of the compounds at 48 hours were compared to the 2% DMSO negative control, and the percent of pathogen growth inhibition was determined based on those values.

Fungal ACC2 = Fungal ACC2 (UniProt Q00955); conditions: read-out: Fungal ACC2 (IC50, in vitro ACC2 inhibition)
Chain of Fungal ACC2 (Q00955 whole entry): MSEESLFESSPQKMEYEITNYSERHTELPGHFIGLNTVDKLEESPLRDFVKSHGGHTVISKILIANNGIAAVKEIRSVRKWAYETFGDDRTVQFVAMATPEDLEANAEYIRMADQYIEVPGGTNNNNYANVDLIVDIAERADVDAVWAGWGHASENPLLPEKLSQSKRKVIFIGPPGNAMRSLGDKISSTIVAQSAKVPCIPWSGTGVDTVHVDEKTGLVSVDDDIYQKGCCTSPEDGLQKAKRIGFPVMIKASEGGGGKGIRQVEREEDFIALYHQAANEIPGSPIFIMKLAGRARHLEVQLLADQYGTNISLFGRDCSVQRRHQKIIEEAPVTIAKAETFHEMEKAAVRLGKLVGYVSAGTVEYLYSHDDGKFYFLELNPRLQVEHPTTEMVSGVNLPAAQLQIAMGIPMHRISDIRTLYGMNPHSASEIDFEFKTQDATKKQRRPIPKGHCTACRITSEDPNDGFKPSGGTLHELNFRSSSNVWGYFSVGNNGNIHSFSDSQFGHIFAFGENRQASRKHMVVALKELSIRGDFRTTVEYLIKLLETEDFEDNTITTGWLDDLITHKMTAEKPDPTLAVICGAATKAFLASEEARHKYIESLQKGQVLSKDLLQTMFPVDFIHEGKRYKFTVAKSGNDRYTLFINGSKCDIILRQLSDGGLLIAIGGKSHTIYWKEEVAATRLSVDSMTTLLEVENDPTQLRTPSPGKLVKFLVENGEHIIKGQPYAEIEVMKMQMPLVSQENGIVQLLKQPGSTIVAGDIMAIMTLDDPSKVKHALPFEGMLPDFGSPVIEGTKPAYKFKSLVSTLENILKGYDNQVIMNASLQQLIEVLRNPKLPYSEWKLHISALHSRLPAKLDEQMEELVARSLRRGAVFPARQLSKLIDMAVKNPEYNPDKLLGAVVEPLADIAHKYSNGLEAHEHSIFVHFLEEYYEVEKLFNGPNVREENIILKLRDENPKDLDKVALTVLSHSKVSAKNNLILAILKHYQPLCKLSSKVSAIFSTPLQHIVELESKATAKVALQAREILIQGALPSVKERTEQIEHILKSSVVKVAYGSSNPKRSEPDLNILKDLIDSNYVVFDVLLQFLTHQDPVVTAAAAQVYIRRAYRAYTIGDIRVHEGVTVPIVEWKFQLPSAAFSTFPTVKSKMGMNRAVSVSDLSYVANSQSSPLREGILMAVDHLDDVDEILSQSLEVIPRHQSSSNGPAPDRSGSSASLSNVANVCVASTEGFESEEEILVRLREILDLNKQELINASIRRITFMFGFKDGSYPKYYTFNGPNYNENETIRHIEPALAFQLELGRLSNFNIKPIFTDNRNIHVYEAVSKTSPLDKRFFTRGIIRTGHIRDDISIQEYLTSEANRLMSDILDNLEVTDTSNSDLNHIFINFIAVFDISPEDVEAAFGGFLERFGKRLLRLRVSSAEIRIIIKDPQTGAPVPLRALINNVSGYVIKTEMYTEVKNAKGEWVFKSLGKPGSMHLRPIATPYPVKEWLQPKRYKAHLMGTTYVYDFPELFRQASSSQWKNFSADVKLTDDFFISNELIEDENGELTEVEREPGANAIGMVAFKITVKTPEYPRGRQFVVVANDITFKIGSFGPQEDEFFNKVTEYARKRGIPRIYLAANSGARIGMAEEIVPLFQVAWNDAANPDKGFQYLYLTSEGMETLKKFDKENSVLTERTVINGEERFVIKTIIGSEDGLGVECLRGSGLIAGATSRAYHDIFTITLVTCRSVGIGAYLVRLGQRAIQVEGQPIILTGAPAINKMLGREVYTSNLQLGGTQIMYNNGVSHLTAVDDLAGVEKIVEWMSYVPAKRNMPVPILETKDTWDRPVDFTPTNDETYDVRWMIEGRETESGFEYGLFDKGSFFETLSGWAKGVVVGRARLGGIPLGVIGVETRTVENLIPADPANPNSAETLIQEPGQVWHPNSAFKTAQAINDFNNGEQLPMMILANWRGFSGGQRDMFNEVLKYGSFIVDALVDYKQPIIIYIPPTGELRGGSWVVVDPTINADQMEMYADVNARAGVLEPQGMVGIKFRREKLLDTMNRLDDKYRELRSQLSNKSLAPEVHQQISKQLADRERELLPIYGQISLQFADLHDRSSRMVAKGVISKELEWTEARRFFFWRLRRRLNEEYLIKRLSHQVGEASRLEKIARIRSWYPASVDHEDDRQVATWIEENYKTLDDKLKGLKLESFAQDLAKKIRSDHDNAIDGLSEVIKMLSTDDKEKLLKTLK

Human ACC2 = Human ACC2 (Homo sapiens, UniProt O00763); assay: In vitro ACC2 inhibition assay (ADP-Glo), human ACC2; type: biochemical; conditions: 5 nM ACC2, 20 μM ATP, 20 μM acetyl-CoA
Chain of Human ACC2 (O00763 whole entry): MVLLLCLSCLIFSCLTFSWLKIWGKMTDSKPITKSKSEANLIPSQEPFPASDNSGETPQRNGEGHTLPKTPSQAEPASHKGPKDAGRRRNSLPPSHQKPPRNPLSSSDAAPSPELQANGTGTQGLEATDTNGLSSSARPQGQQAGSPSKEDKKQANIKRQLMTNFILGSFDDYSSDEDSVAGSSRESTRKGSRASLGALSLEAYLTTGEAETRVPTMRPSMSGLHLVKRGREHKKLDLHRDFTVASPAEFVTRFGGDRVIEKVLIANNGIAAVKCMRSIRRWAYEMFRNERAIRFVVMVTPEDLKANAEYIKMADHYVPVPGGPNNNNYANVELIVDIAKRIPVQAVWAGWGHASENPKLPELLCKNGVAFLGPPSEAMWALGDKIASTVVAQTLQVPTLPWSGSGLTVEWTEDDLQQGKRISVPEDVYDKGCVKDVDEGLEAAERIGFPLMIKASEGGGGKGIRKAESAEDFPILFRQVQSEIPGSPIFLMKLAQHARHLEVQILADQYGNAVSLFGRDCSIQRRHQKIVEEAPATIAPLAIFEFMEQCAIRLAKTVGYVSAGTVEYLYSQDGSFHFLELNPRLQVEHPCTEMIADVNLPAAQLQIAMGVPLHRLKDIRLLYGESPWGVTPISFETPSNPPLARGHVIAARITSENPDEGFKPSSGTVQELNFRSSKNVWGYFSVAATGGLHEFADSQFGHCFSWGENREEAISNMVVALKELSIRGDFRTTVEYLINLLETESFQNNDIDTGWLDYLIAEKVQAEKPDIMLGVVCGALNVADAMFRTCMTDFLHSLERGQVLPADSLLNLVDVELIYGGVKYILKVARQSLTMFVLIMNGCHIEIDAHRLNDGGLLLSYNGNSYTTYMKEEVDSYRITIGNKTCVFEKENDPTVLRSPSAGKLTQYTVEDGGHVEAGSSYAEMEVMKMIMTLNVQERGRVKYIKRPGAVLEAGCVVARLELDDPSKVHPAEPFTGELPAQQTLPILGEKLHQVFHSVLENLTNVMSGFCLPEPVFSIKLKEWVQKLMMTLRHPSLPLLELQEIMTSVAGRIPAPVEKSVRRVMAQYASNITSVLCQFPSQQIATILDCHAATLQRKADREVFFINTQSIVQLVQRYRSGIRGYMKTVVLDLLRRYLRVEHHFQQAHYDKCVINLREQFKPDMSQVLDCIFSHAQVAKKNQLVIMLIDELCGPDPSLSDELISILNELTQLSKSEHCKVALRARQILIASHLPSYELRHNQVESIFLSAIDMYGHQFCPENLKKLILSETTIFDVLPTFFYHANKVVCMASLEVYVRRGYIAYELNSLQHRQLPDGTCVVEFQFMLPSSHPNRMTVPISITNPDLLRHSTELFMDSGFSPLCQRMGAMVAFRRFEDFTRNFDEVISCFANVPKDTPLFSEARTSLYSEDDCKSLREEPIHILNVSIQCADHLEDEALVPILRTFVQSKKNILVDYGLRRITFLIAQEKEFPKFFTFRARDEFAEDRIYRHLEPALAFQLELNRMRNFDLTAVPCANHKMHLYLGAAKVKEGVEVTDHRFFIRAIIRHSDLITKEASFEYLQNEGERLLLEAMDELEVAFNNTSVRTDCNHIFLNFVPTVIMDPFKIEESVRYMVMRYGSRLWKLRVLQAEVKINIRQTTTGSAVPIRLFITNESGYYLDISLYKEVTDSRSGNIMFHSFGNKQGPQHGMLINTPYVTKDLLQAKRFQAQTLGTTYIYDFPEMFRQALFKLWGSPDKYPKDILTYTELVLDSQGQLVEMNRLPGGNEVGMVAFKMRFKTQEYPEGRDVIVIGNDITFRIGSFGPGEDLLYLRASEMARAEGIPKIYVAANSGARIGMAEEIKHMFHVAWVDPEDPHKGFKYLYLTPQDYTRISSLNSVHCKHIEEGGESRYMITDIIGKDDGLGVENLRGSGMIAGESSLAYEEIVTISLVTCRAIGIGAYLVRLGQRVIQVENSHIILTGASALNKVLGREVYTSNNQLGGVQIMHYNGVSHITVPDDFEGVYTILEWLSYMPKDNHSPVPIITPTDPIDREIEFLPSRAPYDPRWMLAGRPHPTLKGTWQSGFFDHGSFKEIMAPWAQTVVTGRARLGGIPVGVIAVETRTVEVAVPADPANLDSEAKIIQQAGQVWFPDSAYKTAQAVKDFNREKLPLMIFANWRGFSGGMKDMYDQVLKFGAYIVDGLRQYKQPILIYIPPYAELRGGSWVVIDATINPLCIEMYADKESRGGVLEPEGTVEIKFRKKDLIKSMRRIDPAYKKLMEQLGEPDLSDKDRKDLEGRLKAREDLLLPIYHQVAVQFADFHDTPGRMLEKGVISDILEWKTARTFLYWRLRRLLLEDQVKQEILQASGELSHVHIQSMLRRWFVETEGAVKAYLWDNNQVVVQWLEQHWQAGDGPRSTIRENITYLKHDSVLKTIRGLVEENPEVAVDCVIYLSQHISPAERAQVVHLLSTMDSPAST

[3] = compound concentration 10 ppm, foliar spray, evaluated 7 days after inoculation
Diplodia maydis (Dm) = assay: Growth inhibition assay of fungal pathogens, Dm; type: cell-based; conditions: Stenocarpella maydis, read-out: Concentration at 90% Inhibition, Dm
Experimental: as §1

[4] = tested on: Fusarium moniliforme (Fm); assay: Growth inhibition assay of fungal pathogens, Fm; type: cell-based; conditions: Fusarium verticillioides, read-out: Concentration at 90% Inhibition, Fm
Experimental: as §1

[5] = tested on: Fusarium virguliforme (Fv); assay: Growth inhibition assay of fungal pathogens, Fv; type: cell-based; conditions: read-out: Concentration at 90% Inhibition, Fv
Experimental: as §1

[6] = tested on: Collectotrichum graminicola (Cg); assay: Growth inhibition assay of fungal pathogens, Cg; type: cell-based; conditions: read-out: Concentration at 90% Inhibition, Cg
Experimental: as §1

Septoria tritici (St) = assay: Growth inhibition assay of fungal pathogens, St; type: cell-based; conditions: Zymoseptoria tritici, read-out: Concentration at 90% Inhibition, St
Experimental: as §1

Botrtyis cinerea (Bc) = assay: Growth inhibition assay of fungal pathogens, Bc; type: cell-based; conditions: read-out: Concentration at 90% Inhibition, Bc
Experimental: as §1

Rhizoctonia solani (Rs) = assay: Growth inhibition assay of fungal pathogens, Rs; type: cell-based; conditions: read-out: Concentration at 90% Inhibition, Rs
Experimental: as §1

Row | Structure (SMILES) | pest or weed control at 50 ppm ([1]; foliar) | IC90 ([2]; 48 h) | IC50 (Fungal ACC2) | IC50 (Human ACC2) | Barley Powdery Mildew Control at 10 ppm [3] | IC90 (Diplodia maydis (Dm); 48 h) | IC90 ([4]; 48 h) | IC90 ([5]; 48 h) | IC90 ([6]; 48 h) | IC90 (Septoria tritici (St); 48 h) | IC90 (Botrtyis cinerea (Bc); 48 h) | IC90 (Rhizoctonia solani (Rs); 48 h) | further results
1 | COCCO[C@@H](Cn1c(=O)n([C@H]2CCNC2=O)c(=O)c2c(C)c(-n3nccn3)sc21)c1cc(F)ccc1OC [Compound I-25, 1-((R)-2-(5-fluoro-2-methoxyphenyl)-2-(2-methoxy-ethoxy)ethyl)-5-methyl-3-((S)-2-oxopyrrolidin-3-yl)-6-(2H-1,2,3-triazol-2-yl)thieno[2,3-d]pyrimidine-2,4(1H,3H)-dione] | 50 to 69% | > 50 µg/mL | 0.002 to 0.01 µM | 0.01 to 0.1 µM | D (provided a compound having <25% control of barley powdery mildew) | > 50 µg/mL | 10 µg/mL (≈ 17.9 µM) | > 50 µg/mL | > 50 µg/mL | > 50 µg/mL | > 50 µg/mL | > 50 µg/mL | –
2 | COCCO[C@@H](Cn1c(=O)n([C@@H]2CCNC2=O)c(=O)c2c(C)c(-n3nccn3)sc21)c1cc(F)ccc1OC [Compound I-26, 1-((R)-2-(5-fluoro-2-methoxyphenyl)-2-(2-methoxy-ethoxy)ethyl)-5-methyl-3-((R)-2-oxopyrrolidin-3-yl)-6-(2H-1,2,3-triazol-2-yl)thieno[2,3-d]pyrimidine-2,4(1H,3H)-dione] | 70 to 84% | > 50 µg/mL | 0.0007 to 0.002 µM | 0.002 to 0.01 µM | D (provided a compound having <25% control of barley powdery mildew) | > 50 µg/mL | 2 µg/mL (≈ 3.58 µM) | 10 µg/mL (≈ 17.9 µM) | > 50 µg/mL | > 50 µg/mL | 10 µg/mL (≈ 17.9 µM) | > 50 µg/mL | –
3 | COc1ccc(F)cc1[C@H](Cn1c(=O)n([C@H]2CCCN(C(C)C)C2=O)c(=O)c2c(C)c(-n3nccn3)sc21)OCCO [Compound I-74, 1-((R)-2-(5-fluoro-2-methoxyphenyl)-2-(2-hydroxy-ethoxy)ethyl)-3-((S)-1-isopropyl-2-oxopiperidin-3-yl)-5-methyl-6-(2H-1,2,3-triazol-2-yl)thieno[2,3-d]pyrimidine-2,4(1H,3H)-dione] | – | – | – | 0.01 to 0.1 µM | D (provided a compound having <25% control of barley powdery mildew) | – | – | – | – | – | – | – | pest or weed control at 50 ppm ([1]; compound concentration 50 ppm, foliar spray, evaluated 7 days after inoculation): 70 to 84%; IC90 ([2]; 48 hours): > 50 µg/mL; IC90 (Diplodia maydis (Dm); 48 hours): 10 µg/mL (≈ 16.6 µM); IC90 ([4]; 48 hours): 2 µg/mL (≈ 3.33 µM); IC90 ([5]; 48 hours): 2 µg/mL (≈ 3.33 µM); IC90 ([6]; 48 hours): 10 µg/mL (≈ 16.6 µM); IC90 (Septoria tritici (St); 48 hours): > 50 µg/mL; IC90 (Botrtyis cinerea (Bc); 48 hours): 2 µg/mL (≈ 3.33 µM); IC90 (Rhizoctonia solani (Rs); 48 hours): 2 µg/mL (≈ 3.33 µM)
